Twelve compounds from patent US11306072B2, “5-bromo-indirubins” (City of Hope, priority 2013, dated 2022) can be followed below.

Where two headings read alike, the source gives them in different places. Some results are limits rather than exact numbers.

The target of experiment [1] is c-Src (Homo sapiens, UniProt P12931). The experiment is described as follows: In vitro kinase assay with recombinant protein (33P-ATP), c-Src. The class given is biochemical. The settings on record: 120 min at room temperature, read-out: IC50 against kinase activity in vitro, c-Src. As to the method:
(§1) The kinase assays were performed with recombinant proteins. Briefly, proteins, freshly prepared substrates and ^33P-ATP (specific activity 0.01 μCi/μl final) were mixed in reaction buffer (20 mM HEPES pH 7.5, 10 mM MgCl2, 1 mM EGTA, 0.02% Brij35, 0.02 mg/ml BSA, 0.1 mM Na3VO4, 2 mM DTT) in the presence of DMSO as control or 5BIODs. The mixtures were reacted for 120 min at room temperature. Samples were transferred onto P81 ion exchange paper and filters were extensively washed with 0.75% phosphoric acid. The radioactivities were monitored.

For experiment [2], the target named is T1, AuroraA (Homo sapiens, UniProt O14965).
T1 sequence (O14965 1-403): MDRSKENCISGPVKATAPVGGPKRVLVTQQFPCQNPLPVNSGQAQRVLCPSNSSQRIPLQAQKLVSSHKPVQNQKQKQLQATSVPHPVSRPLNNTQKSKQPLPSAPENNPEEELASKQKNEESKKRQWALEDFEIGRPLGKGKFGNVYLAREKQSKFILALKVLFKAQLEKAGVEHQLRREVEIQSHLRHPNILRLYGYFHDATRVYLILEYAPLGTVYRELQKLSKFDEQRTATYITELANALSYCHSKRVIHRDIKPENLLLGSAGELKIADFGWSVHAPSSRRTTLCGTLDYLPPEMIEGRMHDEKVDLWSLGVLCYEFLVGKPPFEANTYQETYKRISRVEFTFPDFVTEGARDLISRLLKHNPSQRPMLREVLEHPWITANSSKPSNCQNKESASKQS
The experiment is described as follows: In vitro kinase assay with recombinant protein (33P-ATP), AuroraA. Conditions: 120 min at room temperature, read-out: IC50 against kinase activity in vitro, AuroraA. The class given is biochemical. The protocol: as §1

Experiment [3] relates to MDA-MB-231 breast cancer cells. The experiment is described as follows: MTS cell viability assay, MDA-MB-231 breast cancer cells. The experiment is classed as cell-based. Conditions: Homo sapiens, 48 h exposure, quadruplicate, read-out: IC50 values against cancer cells, MDA-MB-231 breast. As to the method:
(§2) FIGS. 2A-2G. Effects of 5BIODs on viabilities of human cancer cells; MTS assays were performed for cell viability; human A549 non-small cell lung cancer (FIG. 2A), MDA-MB-231 and MDA-MB-468 breast cancer (FIG. 2B), A2058 melanoma (FIG. 2C), DU145 prostate cancer (FIG. 2D), SKOV3 ovarian cancer (FIG. 2E), T315I Abl mutant KCL-22 CML (FIG. 2F) and MIA-PaCa2 pancreatic cancer (FIG. 2G) cells were seeded in 96-well plates (5000/well for solid tumor cell lines and 10000 cells/well for CML cell line), incubated overnight at 37° C. in 5% (v/v) CO2 and exposed to 5BIODs at 1 μM or 10 μM concentration for 48 h; DMSO was used as the vehicle control; cell viability was determined by tetrazolium conversion to its formazan dye and absorbance was measured at 490 nm using an automated ELISA plate reader; each experiment was performed in quadruplicate. Histogram ordering: FIG. 2B depicts MDA-MB-231 (black) and MDA-MB-468 (gray), in order left to right; FIG. 2C: 1 μM (gray); 10 μM (black), in order left to right; FIG. 2D: 1 μM (gray); 10 μM (black), in order left to right;
In general terms: Formazan colour is commonly taken as a measure of viable cells.

For experiment [4], the target named is ABL1 (T315I) (Homo sapiens, UniProt P00519, T315I). The experiment is described as follows: In vitro kinase assay with recombinant protein (33P-ATP), ABL1 (T315I). The experiment is classed as biochemical. The settings on record: 120 min at room temperature, read-out: IC50 against kinase activity in vitro, ABL1 (T315I). As to the method:
as §1

In experiment [5] the test system is MIA-PaCa2 pancreatic cancer cells. The experiment is described as follows: MTS cell viability assay, MIA-PaCa2 pancreatic cancer cells. The settings on record: Homo sapiens, 48 h exposure, quadruplicate, read-out: IC50 values against cancer cells, PaCa2 pancreatic. The experiment is classed as cell-based. The protocol: as §2
Experiment [6] concerns SKOV3 ovarian cancer cells. The experiment is described as follows: MTS cell viability assay, SKOV3 ovarian cancer cells. Conditions: for IC50: Homo sapiens, SK-OV-3, MTS cell viability, 48 h exposure, quadruplicate, read-out: IC50 values against cancer cells, SKOV3 ovarian; for effect on viabilities of SKOV3 ovarian cancer cells: MTS assay, FIG. 3 legend, result in words. The class given is cell-based, human.

Experiment [7] concerns the target JAK2 (Homo sapiens, UniProt O60674). The experiment is described as follows: In vitro kinase assay with recombinant protein (33P-ATP), JAK2. The experiment is classed as biochemical. The settings on record: 120 min at room temperature, read-out: IC50 against kinase activity in vitro, JAK2. As to the method: as §1
Experiment [8] deals with A2058 melanoma cells. The experiment is described as follows: MTS cell viability assay, A2058 melanoma cells. The experiment is classed as cell-based, human. The settings on record: quadruplicate, read-out: IC50 values against cancer cells, A2058 melanoma. As to the method: as §2
The test system of experiment [9] is T315I Abl mutant KCL-22 CML cells. The experiment is described as follows: MTS cell viability assay, T315I Abl mutant KCL-22 CML cells. The experiment is classed as cell-based. The settings on record: Homo sapiens, 48 h exposure, quadruplicate, read-out: IC50 values against cancer cells, T315l Alb mutant KCL-22 CML. The protocol:
as §2

For experiment [10], the system named is DU145 prostate cancer cells. The experiment is described as follows: MTS cell viability assay, DU145 prostate cancer cells. The experiment is classed as cell-based, human. Conditions: quadruplicate, read-out: IC50 values against cancer cells, DU145 prostate.
For experiment [11], the target named is ABL1 (Homo sapiens, UniProt P00519). The experiment is described as follows: In vitro kinase assay with recombinant protein (33P-ATP), ABL1. The class given is biochemical. The settings on record: 120 min at room temperature, read-out: IC50 against kinase activity in vitro, ABL1. The protocol: as §1
The target in experiment [12] is TYK2 (Homo sapiens, UniProt P29597). The experiment is described as follows: In vitro kinase assay with recombinant protein (33P-ATP), TYK2. The experiment is classed as biochemical. The settings on record: 120 min at room temperature, read-out: IC50 against kinase activity in vitro, TYK2. The protocol:
as §1

Experiment [13] concerns A549 non-small cell lung cancer cells. The experiment is described as follows: MTS cell viability assay, A549 lung cancer cells. The settings on record: Homo sapiens, 48 h exposure, quadruplicate, read-out: IC50 values against cancer cells, A549 lung. The class given is cell-based. The protocol:
as §2

[14] abbreviates: Homo sapiens, A2058, 48 h, 48 h exposure.
Setting [15] is: Homo sapiens, DU-145, 48 h, 48 h exposure.
Setting [16] is: Homo sapiens, A2058, 48 h exposure.
Setting [17] is: Homo sapiens, DU-145, 48 h exposure.

Chain of c-Src (P12931 whole entry): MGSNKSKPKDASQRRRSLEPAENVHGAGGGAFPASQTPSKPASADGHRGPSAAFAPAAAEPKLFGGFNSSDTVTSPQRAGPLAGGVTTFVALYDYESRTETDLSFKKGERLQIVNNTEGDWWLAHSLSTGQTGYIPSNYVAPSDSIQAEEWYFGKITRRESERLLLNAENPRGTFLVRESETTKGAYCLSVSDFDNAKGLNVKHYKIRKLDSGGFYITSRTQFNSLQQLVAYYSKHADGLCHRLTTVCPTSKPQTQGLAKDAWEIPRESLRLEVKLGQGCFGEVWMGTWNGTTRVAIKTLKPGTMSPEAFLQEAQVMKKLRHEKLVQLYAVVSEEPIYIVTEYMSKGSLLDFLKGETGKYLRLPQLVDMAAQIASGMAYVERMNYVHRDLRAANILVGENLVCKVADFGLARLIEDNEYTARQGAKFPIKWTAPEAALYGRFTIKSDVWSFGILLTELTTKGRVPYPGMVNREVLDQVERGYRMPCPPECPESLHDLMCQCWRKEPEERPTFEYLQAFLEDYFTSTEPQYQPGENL
Chain of JAK2 (O60674 whole entry): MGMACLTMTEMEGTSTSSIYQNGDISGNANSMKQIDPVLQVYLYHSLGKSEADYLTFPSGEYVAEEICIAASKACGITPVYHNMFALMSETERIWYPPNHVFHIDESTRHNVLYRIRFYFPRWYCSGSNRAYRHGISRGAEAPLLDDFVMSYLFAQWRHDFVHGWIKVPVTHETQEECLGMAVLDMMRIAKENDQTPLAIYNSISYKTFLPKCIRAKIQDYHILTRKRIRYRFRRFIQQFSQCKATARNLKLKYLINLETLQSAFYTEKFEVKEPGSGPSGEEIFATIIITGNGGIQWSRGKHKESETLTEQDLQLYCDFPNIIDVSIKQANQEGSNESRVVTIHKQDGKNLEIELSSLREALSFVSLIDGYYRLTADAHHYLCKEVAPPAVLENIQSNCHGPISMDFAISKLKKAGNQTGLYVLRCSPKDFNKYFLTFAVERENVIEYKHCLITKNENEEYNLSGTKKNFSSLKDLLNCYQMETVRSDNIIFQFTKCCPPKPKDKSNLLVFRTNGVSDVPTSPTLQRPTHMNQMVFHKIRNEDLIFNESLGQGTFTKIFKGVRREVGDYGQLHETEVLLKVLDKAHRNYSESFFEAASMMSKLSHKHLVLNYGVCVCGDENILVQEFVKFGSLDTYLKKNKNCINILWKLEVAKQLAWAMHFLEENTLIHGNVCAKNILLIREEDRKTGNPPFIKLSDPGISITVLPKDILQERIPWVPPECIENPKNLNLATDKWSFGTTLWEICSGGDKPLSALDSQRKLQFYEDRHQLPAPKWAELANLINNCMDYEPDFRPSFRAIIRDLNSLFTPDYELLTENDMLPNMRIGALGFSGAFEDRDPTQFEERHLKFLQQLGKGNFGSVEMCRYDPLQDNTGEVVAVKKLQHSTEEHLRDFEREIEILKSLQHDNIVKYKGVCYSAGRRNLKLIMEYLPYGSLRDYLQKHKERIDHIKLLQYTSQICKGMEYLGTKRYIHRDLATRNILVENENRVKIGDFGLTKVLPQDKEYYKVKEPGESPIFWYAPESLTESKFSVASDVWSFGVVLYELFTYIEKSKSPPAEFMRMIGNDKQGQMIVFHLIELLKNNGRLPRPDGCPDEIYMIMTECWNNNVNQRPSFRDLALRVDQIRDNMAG
Chain of TYK2 (P29597 whole entry): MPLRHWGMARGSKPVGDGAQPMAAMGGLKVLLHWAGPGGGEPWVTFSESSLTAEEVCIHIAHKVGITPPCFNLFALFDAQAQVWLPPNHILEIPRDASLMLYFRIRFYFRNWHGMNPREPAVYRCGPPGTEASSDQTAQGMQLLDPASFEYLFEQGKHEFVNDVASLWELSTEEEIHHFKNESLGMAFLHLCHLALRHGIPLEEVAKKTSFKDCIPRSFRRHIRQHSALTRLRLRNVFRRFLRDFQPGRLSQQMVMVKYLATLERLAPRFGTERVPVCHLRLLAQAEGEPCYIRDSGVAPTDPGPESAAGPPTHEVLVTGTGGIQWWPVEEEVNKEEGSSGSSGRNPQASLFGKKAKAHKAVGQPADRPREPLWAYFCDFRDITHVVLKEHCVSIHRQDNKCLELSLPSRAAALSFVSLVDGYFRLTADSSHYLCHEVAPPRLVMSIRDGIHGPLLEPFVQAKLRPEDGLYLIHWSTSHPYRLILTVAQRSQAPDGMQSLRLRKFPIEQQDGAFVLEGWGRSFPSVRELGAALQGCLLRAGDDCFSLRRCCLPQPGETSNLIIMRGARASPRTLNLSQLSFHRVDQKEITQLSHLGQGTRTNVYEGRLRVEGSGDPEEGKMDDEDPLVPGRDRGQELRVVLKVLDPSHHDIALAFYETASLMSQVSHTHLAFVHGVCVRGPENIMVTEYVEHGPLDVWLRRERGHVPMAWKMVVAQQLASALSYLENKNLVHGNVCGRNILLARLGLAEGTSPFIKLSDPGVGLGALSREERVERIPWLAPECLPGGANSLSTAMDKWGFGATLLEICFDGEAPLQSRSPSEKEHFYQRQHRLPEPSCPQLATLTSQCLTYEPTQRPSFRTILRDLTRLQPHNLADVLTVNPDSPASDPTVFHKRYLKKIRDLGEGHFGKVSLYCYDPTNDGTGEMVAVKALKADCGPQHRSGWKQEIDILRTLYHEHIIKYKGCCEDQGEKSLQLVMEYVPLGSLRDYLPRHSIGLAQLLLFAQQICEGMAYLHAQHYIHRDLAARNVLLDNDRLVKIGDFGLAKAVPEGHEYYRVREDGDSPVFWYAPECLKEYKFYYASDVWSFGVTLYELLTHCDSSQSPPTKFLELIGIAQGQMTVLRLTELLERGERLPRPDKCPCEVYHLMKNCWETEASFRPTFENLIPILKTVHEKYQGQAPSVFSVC

Consider `CCN(CC)CCO/N=C1/C(=C2/C(=O)Nc3ccc(Br)cc32)Nc2ccccc21` [Compound 1276], for which the IC50 (in general, the concentration at which inhibition is half-maximal) was found to be 34.3 nM in [1]; 954 nM in [2]; 300 nM in [3]; 6580 nM in [4]; 1200 nM in experiment [5]; 410 nM in experiment [6]. Also, the IC50 in [7] was found to be 526 nM; in [8] (setting [14]), 360 nM; in experiment [9], 300 nM; in experiment [10] (setting [15]), 420 nM; in [11] it was 1020 nM; in experiment [12], 31.6 nM. Further, in experiment [13], the IC50 amounted to 470 nM. For the same compound, the “effect on viabilities of SKOV3 ovarian cancer cells” value in [6] is “reduce viabilities”.

With `CCN(CC)CCON=C1C(=C2C(=O)Nc3ccc(Br)cc32)Nc2ccccc21` [Compound 1277], the IC50 in [1] was 95.4 nM; in experiment [2], 3310 nM; in experiment [4], greater than 10000 nM; in experiment [7], 1250 nM; in experiment [8] (setting [14]) it was 1900 nM; in [10] (setting [15]) it was 770 nM. For the same compound, the results for the IC50 in experiment [11] and in [12] were 4770 nM and 146 nM, respectively.

Take `CN(CCO/N=C1/C(=C2/C(=O)Nc3ccc(Br)cc32)Nc2ccccc21)CC(O)CO` (centres unmarked) [Compound 1278]: the IC50 was found to be 12.1 nM in experiment [1]; 122 nM in experiment [2]; 710 nM in experiment [3]; 1550 nM in experiment [4]; 2500 nM in [5]; 750 nM in experiment [6]. Also, the IC50 in experiment [7] came out at 104 nM; in experiment [8] (setting [14]) it was 1700 nM; in [9], 500 nM; in [10] (48 h exposure), 780 nM; in experiment [11] it was 392 nM; in experiment [12] it was 27 nM. In experiment [13], the IC50 was found to be 600 nM.

Turning to `CN(CCO/N=C1/C(=C2/C(=O)Nc3ccc(Br)cc32)Nc2ccccc21)CC(O)CO` (centres unmarked) [Compound 1279], the IC50 in [1] was found to be 69.6 nM; in experiment [2], 301 nM; in [4], 5550 nM; in experiment [7], 410 nM; in experiment [8] (48 h exposure), 2200 nM; in experiment [10] (48 h exposure), 2000 nM. For the same compound, the IC50 in [11] was found to be 1440 nM; in [12] it was 62.7 nM.

With `O=C1Nc2ccc(Br)cc2/C1=C1/Nc2ccccc2/C1=N\OCCN1CCCC1` [Compound 1280], the IC50 in [3] was 660 nM; in experiment [5], 960 nM; in [6], 1340 nM; in [8] (setting [16]), 1600 nM; in experiment [9], 860 nM; in experiment [10] (setting [17]), 660 nM. For the same compound, the IC50 in experiment [13] was determined as 840 nM.

Take `O=C1Nc2ccc(Br)cc2C1=C1Nc2ccccc2C1=NOCCN1CCCC1` [Compound 1281]: the IC50 in experiment [1] was found to be 19.7 nM; in experiment [2], 2050 nM; in experiment [3], 370 nM; in [4] it was 7080 nM; in [5] it was 440 nM; in experiment [6], 750 nM. Further, the IC50 in experiment [7] turned out to be 264 nM; in experiment [8] (setting [16]) it was 1800 nM; in [9] it was 580 nM; in experiment [10] (setting [17]), 660 nM; in experiment [11] it was 2500 nM; in experiment [12] it was 21 nM. For the same compound, the IC50 in [13] was found to be 400 nM.

For `O=C1Nc2ccc(Br)cc2/C1=C1/Nc2ccccc2/C1=N\OCCN1CCN(CCO)CC1` [Compound 1282], the IC50 in experiment [3] came out at 780 nM; in experiment [5] it was 1000 nM; in experiment [6], 770 nM; in experiment [10] (setting [17]), 910 nM; in [13] it was 500 nM.

`CN1CCN(CCO/N=C2/C(=C3/C(=O)Nc4ccc(Br)cc43)Nc3ccccc32)CC1` [Compound 1284]: the values for the IC50 in experiment [3], in experiment [6] and in [13] were 1000 nM, 1360 nM and 440 nM, respectively.

Take `O=C1Nc2ccc(Br)cc2/C1=C1/Nc2ccccc2/C1=N\OCCN1CCN(CCOCCO)CC1` [Compound 1286]: the IC50 in experiment [3] amounted to 1360 nM; in experiment [6] it was 1840 nM; in [13], 930 nM.

With `O=C1Nc2ccc(Br)cc2C1=C1Nc2ccccc2C1=NOCCN1CCNCC1` [Compound 1289], the IC50 in [1] turned out to be 3.7 nM; in [2], 143 nM; in experiment [3] it was 400 nM; in [4], 214 nM; in [5] it was 460 nM; in experiment [6], 460 nM. The IC50 came out at 47.6 nM in [7]; 1100 nM in experiment [8] (setting [16]); 600 nM in [9]; 690 nM in experiment [10] (setting [17]); 71.4 nM in experiment [11]; 20.1 nM in experiment [12]. The half-maximal inhibitory concentration (IC50) in experiment [13] was found to be 380 nM. For the same compound, the “effect on viabilities of SKOV3 ovarian cancer cells” value in experiment [6] was “reduce viabilities”.

With `CN(C)CCO/N=C1/C(=C2/C(=O)Nc3ccc(Br)cc32)Nc2ccccc21` [Compound 1501], the IC50 in [8] (setting [16]) is 880 nM; in [10] (setting [17]) it was 320 nM.

`CCCN(CCC)CCO/N=C1/C(=C2/C(=O)Nc3ccc(Br)cc32)Nc2ccccc21` [Compound 1502]: the figures for the IC50 in experiment [8] (setting [16]) and in [10] (setting [17]) were 1700 nM and 1500 nM, respectively.
